{"source": "patent US20240043928A1", "about": "“BIOMARKERS FOR MYELODYSPLASTIC SYNDROME (MDS) AND METHODS OF USING THE SAME” (Eisai R&D Management Co., Ltd., priority 2020, published 2024)", "key": {"[1]": {"assay": "Phase I study NCT02841540: treatment-related adverse events and dose-limiting toxicities", "format": "in vivo, human", "description": "Patients were enrolled using a conventional 3+3 dose escalation phase I design, with escalations based on a modified Fibonacci sequence scheme (Storer Biometrics. 1989;45(3):925-937). Dose escalations continued until a dose level at which ≥2 patients of the 3-6 enrolled experienced a dose-limiting toxicity (DLT). Maximally tolerated dose (MTD) was defined as the highest dose at which no more than 1 out of 6 patients experienced a DLT. DLTs were defined as any of the following: any Grade 3 or greater study drug-related non-hematologic toxicity except for Grade 3 nausea, vomiting, fatigue, or diarrhea that resolved to Grade 1 or less within 1 week; failure to administer at least 70% of the protocol-specific dose; or prolonged myelosuppression with the persistence of Grade 4 cytopenia in the absence of persistent leukemia or blast increase 21 or more days after suspending dosing. DLTs were assessed during the first 28 days using National Cancer Institute (NCI) Common Toxicity Criteria for Adverse Events (CTCAE) version 4.03.\nThe primary endpoints measured included occurrence of DLTs, the type and frequency of treatment-emergent adverse events (TEAEs), and serious adverse events (SAEs). Key secondary endpoints included drug pharmacokinetics (PK) and preliminary antitumor activity, such as the overall response rate (ORR), effect of drug therapy on transfusion requirements, and overall survival (OS). Biomarker analyses and drug pharmacodynamics (PD) were included as exploratory endpoints. […] In addition, a second schedule (Schedule II) of 21 days on therapy and a rest of 7 days without therapy was explored. […] However, when limited clinical activity was observed on Schedule I, Schedule II was introduced to test whether more prolonged spliceosome modulation would lead to higher clinical activity. Each treatment cycle was 28 days in length. Patients could continue treatment until disease progression or development of unacceptable toxicity.\nEligibility criteria included normal vitamin A levels and visual acuity that corrected to 20/40 unless a cataract was present. Ophthalmologic evaluation, including fundoscopic imaging and visual evoked potentials, was performed during study screening and periodically throughout the duration of the trial."}, "[2]": {"test_system": "xenograft models of leukemia expressing mutant SF3B1", "conditions": "oral administration; cited from earlier work"}, "[3]": {"assay": "Non-human primate toxicity", "format": "in vivo"}}}
{"smiles": "C/C(=C\\C=C\\[C@@H](C)c1ccccn1)[C@H]1OC(=O)C[C@H](O)CC[C@@](C)(O)[C@@H](OC(=O)N2CCN(C)CC2)/C=C/[C@@H]1C", "note": "[Compound 1, (2S,3S,4E,6S,7R,10R)-7,10-dihydroxy-3,7-dimethyl-12-oxo-2-[(2E,4E,6R)-6-(pyridine-2-yl)hepta-2,4-dien-2-yl]oxacyclododec-4-en-6-yl-4-methylpiperazine-1-carboxylate]", "values": [{"measurement": "Diarrhea (treatment-related TEAE, all grades)", "setting": "[1]; Schedule II, 7 mg QD, N = 5", "result": "1 (20) n (%)"}, {"measurement": "Dysgeusia (treatment-related TEAE, all grades)", "setting": "[1]; Schedule II, 7 mg QD, N = 5", "result": "0 n (%)"}, {"measurement": "ECG QTcF prolonged (treatment-related TEAE, all grades)", "setting": "[1]; Schedule II, 7 mg QD, N = 5", "result": "0 n (%)"}, {"measurement": "Fatigue (treatment-related TEAE, all grades)", "setting": "[1]; Schedule II, 7 mg QD, N = 5", "result": "0 n (%)"}, {"measurement": "Hypophosphatemia (treatment-related TEAE, all grades)", "setting": "[1]; Schedule II, 7 mg QD, N = 5", "result": "0 n (%)"}, {"measurement": "Nausea (treatment-related TEAE, all grades)", "setting": "[1]; Schedule II, 7 mg QD, N = 5", "result": "0 n (%)"}, {"measurement": "Vomiting (treatment-related TEAE, all grades)", "setting": "[1]; Schedule II, 7 mg QD, N = 5", "result": "0 n (%)"}, {"measurement": "dose dependency of treatment related AEs", "setting": "[1]; Schedule II, 7 mg-20 mg", "result": "dose dependency trend"}, {"measurement": "Any TEAE (treatment-related, all grades)", "setting": "[1]; Schedule II, 12 mg QD, N = 5", "result": "4 (80) n (%)"}, {"measurement": "Diarrhea (treatment-related TEAE, all grades)", "setting": "[1]; Schedule II, 12 mg QD, N = 5", "result": "1 (20) n (%)"}, {"measurement": "Dysgeusia (treatment-related TEAE, all grades)", "setting": "[1]; Schedule II, 12 mg QD, N = 5", "result": "1 (20) n (%)"}, {"measurement": "ECG QTcF prolonged (treatment-related TEAE, all grades)", "setting": "[1]; Schedule II, 12 mg QD, N = 5", "result": "0 n (%)"}, {"measurement": "Fatigue (treatment-related TEAE, all grades)", "setting": "[1]; Schedule II, 12 mg QD, N = 5", "result": "1 (20) n (%)"}, {"measurement": "Hypophosphatemia (treatment-related TEAE, all grades)", "setting": "[1]; Schedule II, 12 mg QD, N = 5", "result": "2 (40) n (%)"}, {"measurement": "Nausea (treatment-related TEAE, all grades)", "setting": "[1]; Schedule II, 12 mg QD, N = 5", "result": "1 (20) n (%)"}, {"measurement": "Vomiting (treatment-related TEAE, all grades)", "setting": "[1]; Schedule II, 12 mg QD, N = 5", "result": "0 n (%)"}, {"measurement": "patients with DLT grade 3 sinus bradycardia", "setting": "[1]; Schedule II, 14 mg", "result": "1 of 5"}, {"measurement": "Any TEAE (treatment-related, all grades)", "setting": "[1]; Schedule II, 14 mg QD, N = 5", "result": "4 (80) n (%)"}, {"measurement": "Diarrhea (treatment-related TEAE, all grades)", "setting": "[1]; Schedule II, 14 mg QD, N = 5", "result": "2 (40) n (%)"}, {"measurement": "Dysgeusia (treatment-related TEAE, all grades)", "setting": "[1]; Schedule II, 14 mg QD, N = 5", "result": "0 n (%)"}, {"measurement": "ECG QTcF prolonged (treatment-related TEAE, all grades)", "setting": "[1]; Schedule II, 14 mg QD, N = 5", "result": "1 (20) n (%)"}, {"measurement": "Fatigue (treatment-related TEAE, all grades)", "setting": "[1]; Schedule II, 14 mg QD, N = 5", "result": "0 n (%)"}, {"measurement": "Hypophosphatemia (treatment-related TEAE, all grades)", "setting": "[1]; Schedule II, 14 mg QD, N = 5", "result": "0 n (%)"}, {"measurement": "Nausea (treatment-related TEAE, all grades)", "setting": "[1]; Schedule II, 14 mg QD, N = 5", "result": "0 n (%)"}, {"measurement": "Vomiting (treatment-related TEAE, all grades)", "setting": "[1]; Schedule II, 14 mg QD, N = 5", "result": "1 (20) n (%)"}, {"measurement": "patients with DLTs (Grade 3 QTc prolongation; Grade 3 nausea)", "setting": "[1]; Schedule II, 20 mg", "result": "2 of 4"}, {"measurement": "subjects reporting grade 3 AEs", "setting": "[1]; Schedule II, 20 mg", "result": "3 of the 4"}, {"measurement": "Any TEAE (treatment-related, all grades)", "setting": "[1]; Schedule II, 20 mg QD, N = 4", "result": "4 (100) n (%)"}, {"measurement": "Diarrhea (treatment-related TEAE, all grades)", "setting": "[1]; Schedule II, 20 mg QD, N = 4", "result": "4 (100) n (%)"}, {"measurement": "Dysgeusia (treatment-related TEAE, all grades)", "setting": "[1]; Schedule II, 20 mg QD, N = 4", "result": "1 (25) n (%)"}, {"measurement": "ECG QTcF prolonged (treatment-related TEAE, all grades)", "setting": "[1]; Schedule II, 20 mg QD, N = 4", "result": "2 (50) n (%)"}, {"measurement": "Fatigue (treatment-related TEAE, all grades)", "setting": "[1]; Schedule II, 20 mg QD, N = 4", "result": "1 (25) n (%)"}, {"measurement": "Hypophosphatemia (treatment-related TEAE, all grades)", "setting": "[1]; Schedule II, 20 mg QD, N = 4", "result": "0 n (%)"}, {"measurement": "Nausea (treatment-related TEAE, all grades)", "setting": "[1]; Schedule II, 20 mg QD, N = 4", "result": "2 (50) n (%)"}, {"measurement": "Vomiting (treatment-related TEAE, all grades)", "setting": "[1]; Schedule II, 20 mg QD, N = 4", "result": "3 (75) n (%)"}, {"measurement": "Anemia (Grade 3 or 4 treatment-related TEAE)", "setting": "[1]; Schedule II, N = 19", "result": "0 n (%)"}, {"measurement": "ECG QTcF prolonged (Grade 3 or 4 treatment-related TEAE)", "setting": "[1]; Schedule II, N = 19", "result": "1 (5) n (%)"}, {"measurement": "Fatigue (Grade 3 or 4 treatment-related TEAE)", "setting": "[1]; Schedule II, N = 19", "result": "1 (5) n (%)"}, {"measurement": "Hypophosphatemia (Grade 3 or 4 treatment-related TEAE)", "setting": "[1]; Schedule II, N = 19", "result": "1 (5) n (%)"}, {"measurement": "Nausea (Grade 3 or 4 treatment-related TEAE)", "setting": "[1]; Schedule II, N = 19", "result": "1 (5) n (%)"}, {"measurement": "Platelet count decreased (Grade 3 or 4 treatment-related TEAE)", "setting": "[1]; Schedule II, N = 19", "result": "1 (5) n (%)"}, {"measurement": "Sinus bradycardia (Grade 3 or 4 treatment-related TEAE)", "setting": "[1]; Schedule II, N = 19", "result": "1 (5) n (%)"}, {"measurement": "Any TEAE (treatment-related, all grades)", "setting": "[1]; Schedule II, Total, N = 19", "result": "13 (68) n (%)"}, {"measurement": "Diarrhea (treatment-related TEAE, all grades)", "setting": "[1]; Schedule II, Total, N = 19", "result": "8 (42) n (%)"}, {"measurement": "Dysgeusia (treatment-related TEAE, all grades)", "setting": "[1]; Schedule II, Total, N = 19", "result": "2 (11) n (%)"}, {"measurement": "ECG QTcF prolonged (treatment-related TEAE, all grades)", "setting": "[1]; Schedule II, Total, N = 19", "result": "3 (16) n (%)"}, {"measurement": "Fatigue (treatment-related TEAE, all grades)", "setting": "[1]; Schedule II, Total, N = 19", "result": "2 (11) n (%)"}, {"measurement": "Hypophosphatemia (treatment-related TEAE, all grades)", "setting": "[1]; Schedule II, Total, N = 19", "result": "2 (11) n (%)"}, {"measurement": "Nausea (treatment-related TEAE, all grades)", "setting": "[1]; Schedule II, Total, N = 19", "result": "3 (16) n (%)"}, {"measurement": "Vomiting (treatment-related TEAE, all grades)", "setting": "[1]; Schedule II, Total, N = 19", "result": "4 (21) n (%)"}, {"measurement": "QTcF (Fridericia method) prolongation, treatment-related TEAE", "setting": "[1]; Schedule II, all patients", "result": 16, "unit": "%"}, {"measurement": "diarrhea, treatment-related TEAE", "setting": "[1]; Schedule II, all patients", "result": 42, "unit": "%"}, {"measurement": "dysgeusia, treatment-related TEAE", "setting": "[1]; Schedule II, all patients", "result": 11, "unit": "%"}, {"measurement": "fatigue, treatment-related TEAE", "setting": "[1]; Schedule II, all patients", "result": 11, "unit": "%"}, {"measurement": "hypophosphatemia, treatment-related TEAE", "setting": "[1]; Schedule II, all patients", "result": 11, "unit": "%"}, {"measurement": "nausea, treatment-related TEAE", "setting": "[1]; Schedule II, all patients", "result": 16, "unit": "%"}, {"measurement": "vomiting, treatment-related TEAE", "setting": "[1]; Schedule II, all patients", "result": 21, "unit": "%"}, {"measurement": "subjects with treatment related AEs (all grades)", "setting": "[1]; Schedule II, highest dose level tested", "result": 100, "unit": "%"}, {"measurement": "subjects with treatment related AEs (all grades)", "setting": "[1]; Schedule II, lowest dose level tested", "result": 20, "unit": "%"}, {"measurement": "patients who experienced an AE characterized as a DLT", "setting": "[1]; both schedules", "result": 6, "unit": "patients"}, {"measurement": "subjects reporting treatment related AEs (all grades)", "setting": "[1]; both schedules", "result": 63, "unit": "subjects"}, {"measurement": "subjects who reported grade 3 treatment related AEs", "setting": "[1]; both schedules", "result": 12, "unit": "subjects"}, {"measurement": "ocular adverse event", "setting": "[1]; in vivo", "result": "One event of Grade 3 ocular papilledema was reported, without loss in visual acuity"}, {"measurement": "in vivo antitumor activity", "setting": "[2]", "result": "induces in vivo antitumor activity"}, {"measurement": "dose-limiting toxicity (DLT)", "setting": "[3]", "result": "gastrointestinal distress and colitis"}]}
